Laboratory results published in ChEMBL document CHEMBL2417463, “Synthesis and identification of new flavonoids targeting liver X receptor β involved pathway as potential facilitators of Aβ clearance with reduced lipid accumulation” (J Med Chem, 2013).
Active and inactive are the calls of the source. The rule behind the calls is not given here.

Assays:
Type in all cases: cell-based
[1] = target: T1, Oxysterols receptor LXR-beta (Homo sapiens) (UniProt P55055); assay: Agonist activity at human LXRbeta transfected in HEK293 cells at 0.1 uM after 24 hrs by luciferase reporter gene assay relative to vehicle-treated control
T1 sequence (whole entry): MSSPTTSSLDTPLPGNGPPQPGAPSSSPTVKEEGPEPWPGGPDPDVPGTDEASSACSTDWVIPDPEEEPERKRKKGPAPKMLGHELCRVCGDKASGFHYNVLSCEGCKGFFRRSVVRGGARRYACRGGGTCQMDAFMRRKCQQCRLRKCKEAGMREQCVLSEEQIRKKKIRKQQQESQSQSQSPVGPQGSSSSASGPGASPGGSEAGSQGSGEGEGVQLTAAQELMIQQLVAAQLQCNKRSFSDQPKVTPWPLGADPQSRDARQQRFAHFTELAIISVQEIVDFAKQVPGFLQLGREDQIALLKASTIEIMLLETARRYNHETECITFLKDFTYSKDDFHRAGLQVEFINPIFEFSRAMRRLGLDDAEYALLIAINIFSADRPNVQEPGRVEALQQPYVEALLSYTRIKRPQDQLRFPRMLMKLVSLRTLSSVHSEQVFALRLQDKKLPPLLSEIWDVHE

[2] = target: T2, Oxysterols receptor LXR-alpha (Homo sapiens) (UniProt Q13133); assay: Agonist activity at human LXRalpha transfected in HEK293 cells at 1 uM after 24 hrs by luciferase reporter gene assay relative to vehicle-treated control
T2 sequence (whole entry): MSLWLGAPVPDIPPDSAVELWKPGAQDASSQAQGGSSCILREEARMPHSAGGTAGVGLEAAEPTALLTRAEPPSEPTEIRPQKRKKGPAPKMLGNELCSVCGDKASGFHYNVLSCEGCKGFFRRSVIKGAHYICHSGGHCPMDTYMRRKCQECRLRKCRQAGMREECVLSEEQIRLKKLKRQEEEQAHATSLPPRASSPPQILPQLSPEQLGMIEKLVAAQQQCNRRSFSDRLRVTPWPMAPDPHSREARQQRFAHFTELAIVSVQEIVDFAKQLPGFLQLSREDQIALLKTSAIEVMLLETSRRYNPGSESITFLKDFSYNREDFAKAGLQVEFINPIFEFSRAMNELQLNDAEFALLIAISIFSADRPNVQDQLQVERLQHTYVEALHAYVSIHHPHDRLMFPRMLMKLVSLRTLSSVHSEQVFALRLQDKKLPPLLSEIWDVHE

[3] = target: T2, Oxysterols receptor LXR-alpha (Homo sapiens); assay: Agonist activity at human LXRalpha transfected in HEK293 cells at 0.1 uM after 24 hrs by luciferase reporter gene assay relative to vehicle-treated control
[4] = target: T3, Oxysterols receptor LXR-beta (Mus musculus) (UniProt Q60644); assay: Agonist activity at LXRbeta in mouse RAW264.7 cells assessed as induction of ABCA1 promoter activation at 1 uM after 24 hrs by Dual-Glo luciferase reporter gene assay relative to vehicle-treated control
T3 sequence (whole entry): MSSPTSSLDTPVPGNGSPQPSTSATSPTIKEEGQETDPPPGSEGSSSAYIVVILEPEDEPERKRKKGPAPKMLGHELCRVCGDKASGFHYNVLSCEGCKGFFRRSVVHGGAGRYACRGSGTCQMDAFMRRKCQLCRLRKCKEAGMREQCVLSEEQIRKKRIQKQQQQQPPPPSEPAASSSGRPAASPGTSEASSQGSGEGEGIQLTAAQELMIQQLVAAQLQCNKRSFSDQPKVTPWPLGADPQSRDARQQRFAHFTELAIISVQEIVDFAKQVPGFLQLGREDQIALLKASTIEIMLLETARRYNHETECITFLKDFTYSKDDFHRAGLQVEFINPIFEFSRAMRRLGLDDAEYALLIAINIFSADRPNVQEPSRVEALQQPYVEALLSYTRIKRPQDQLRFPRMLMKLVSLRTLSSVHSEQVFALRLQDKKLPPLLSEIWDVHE

HepG2 [5] = assay: Induction of cytoplasmic lipid accumulation in human HepG2 cells at 1 uM after 4 days by oil red O staining-based light microscopic analysis; conditions: hepg2, 96 h
HepG2 [6] = assay: Induction of intracellular triglyceride accumulation in human HepG2 cells at 10 uM after 4 days relative to vehicle-treated control; conditions: hepg2, 96 h
HepG2 [7] = assay: Induction of intracellular triglyceride accumulation in human HepG2 cells at 1 uM after 4 days relative to vehicle-treated control; conditions: hepg2, 96 h
[8] = target: T3, Oxysterols receptor LXR-beta (Mus musculus); assay: Agonist activity at LXRbeta in mouse BV2 cells assessed as degradation of intracellular soluble amyloid beta42 at 1 uM preincubated for 18 hrs followed by soluble amyloid beta42 addition measured after 24 hrs by ELISA relative to vehicle-treated control; conditions: BV-2
[9] = target: T1, Oxysterols receptor LXR-beta (Homo sapiens); assay: Agonist activity at human LXRbeta transfected in HEK293 cells at 1 uM after 24 hrs by luciferase reporter gene assay relative to vehicle-treated control
HEK293 = assay: Cytotoxicity against HEK293 cells assessed as inhibition of cell viability at 50 uM after 48 hrs by SRB assay relative to vehicle-treated control; conditions: human, hek293, 48 h
[10] = (§1) Cytotoxicity against human HepG2 cells assessed as inhibition of cell viability at 50 uM after 48 hrs by SRB assay relative to vehicle-treated control; conditions: HepG2 cells, read-out: Activity
BV-2 = assay: Cytotoxicity against mouse BV2 cells assessed as inhibition of cell viability at 50 uM after 48 hrs by SRB assay relative to vehicle-treated control; conditions: bv-2, 48 h
RAW264.7 = assay: Cytotoxicity against mouse RAW264.7 cells assessed as inhibition of cell viability at 50 uM after 48 hrs by SRB assay relative to vehicle-treated control; conditions: raw264.7, 48 h
HepG2 [11] = assay: Induction of cytoplasmic lipid accumulation in human HepG2 cells at 10 uM after 4 days by oil red O staining-based light microscopic analysis; conditions: hepg2, 96 h
[12] = target: T3, Oxysterols receptor LXR-beta (Mus musculus); assay: Agonist activity at LXRbeta in mouse BV2 cells assessed as upregulation of apoE protein expression at 1 uM after 48 hrs by Western blot analysis relative to vehicle-treated control; conditions: BV-2
[13] = target: T3, Oxysterols receptor LXR-beta (Mus musculus); assay: Agonist activity at LXRbeta in mouse BV2 cells assessed as upregulation of apoE protein expression at 0.1 uM after 48 hrs by Western blot analysis relative to vehicle-treated control; conditions: BV-2
[14] = target: T3, Oxysterols receptor LXR-beta (Mus musculus); assay: Agonist activity at LXRbeta in mouse BV2 cells assessed as upregulation of ABCA1 protein expression after 12 to 48 hrs by Western blot analysis; conditions: BV-2
[15] = target: T3, Oxysterols receptor LXR-beta (Mus musculus); assay: Agonist activity at LXRbeta in mouse BV2 cells assessed as upregulation of ABCA1 protein expression at 1 uM after 12 to 48 hrs by Western blot analysis; conditions: BV-2
[16] = target: T3, Oxysterols receptor LXR-beta (Mus musculus); assay: Agonist activity at LXRbeta in mouse RAW264.7 cells assessed as upregulation of ABCA1 protein expression after 18 to 48 hrs by Western blot analysis
[17] = target: T3, Oxysterols receptor LXR-beta (Mus musculus); assay: Agonist activity at LXRbeta in mouse RAW264.7 cells assessed as upregulation of ABCA1 protein expression at 1 uM after 18 to 48 hrs by Western blot analysis
[18] = target: T3, Oxysterols receptor LXR-beta (Mus musculus); assay: Agonist activity at LXRbeta in mouse RAW264.7 cells assessed as induction of ABCA1 promoter activation after 24 hrs by Dual-Glo luciferase reporter gene assay
HepG2 [19] = assay: as §1; conditions: hepg2, 48 h, 50 µM
[20] = target: T3, Oxysterols receptor LXR-beta (Mus musculus); assay: Agonist activity at LXRbeta in mouse BV2 cells assessed as degradation of intracellular soluble amyloid beta42 at 0.1 uM preincubated for 18 hrs followed by soluble amyloid beta42 addition measured after 24 hrs by ELISA relative to vehicle-treated control; conditions: BV-2
[21] = target: T3, Oxysterols receptor LXR-beta (Mus musculus); assay: Agonist activity at LXRbeta in mouse BV2 cells assessed as degradation of intracellular amyloid beta42 preincubated for 18 hrs followed by soluble amyloid beta42 addition measured after 24 hrs by ELISA; conditions: BV-2
[22] = target: T3, Oxysterols receptor LXR-beta (Mus musculus); assay: Agonist activity at LXRbeta in mouse BV2 cells assessed as upregulation of apoE protein expression at 10 uM after 48 hrs by Western blot analysis relative to vehicle-treated control; conditions: BV-2

| fold change (FC) [1] | fold change (FC) [2] | fold change (FC) [3] | fold change (FC) [4] | Activity (HepG2 [6]) | Activity (HepG2 [7]) | Activity [8] | fold change (FC) [9] | fold change (FC) [12] | fold change (FC) [13] | Activity [14] | Activity [15] | Activity [16] | Activity [17] | Compound | Activity (HepG2 [5]) | Activity (HEK293) | Activity (BV-2) | Activity (RAW264.7) | Activity (HepG2 [11]) | further results |
| --- | --- | --- | --- | --- | --- | --- | --- | --- | --- | --- | --- | --- | --- | --- | --- | --- | --- | --- | --- | --- |
| 1.42 | 2.38 | 1.53 | 1.83 | 242% | 43% | 55% | 1.86 |  |  |  |  |  |  | O=C(O)Cc1cccc(OCCCN(Cc2cccc(C(F)(F)F)c2Cl)CC(c2ccccc2)c2ccccc2)c1 | Toxic |  |  |  |  |  |
|  |  |  |  |  | 175% |  |  |  |  |  |  |  |  | O=S(=O)(c1ccccc1)N(CC(F)(F)F)c1ccc(C(O)(C(F)(F)F)C(F)(F)F)cc1 [T091317] | Toxic |  |  |  |  |  |
| 1.19 | 1.02 | 1.32 | 1.9 | 18% | -6% | 38% | 1.76 | 1.4 | 1.1 | Dose-dependent effect | Active | Dose-dependent effect | Active | O=c1cc(-c2c[nH]c3ccccc23)oc2cc(O)ccc12 |  | Non-toxic | Non-toxic | Non-toxic | Toxic | inhibition at 48 h, 50 µM [10]: 45% |
| 1.38 | 1.11 | 1.06 | 2.64 | 19% | -21% | 37% | 2.22 | 1.4 | 1.4 | Dose-dependent effect | Active | Dose-dependent effect | Active | Nc1ccc(C(=O)/C=C/c2ccc3ccccc3c2)c(O)c1 |  | Non-toxic | Non-toxic | Non-toxic | Toxic | Activity [18]: Dose-dependent effect; Activity (HepG2 [19]): Non-toxic; Activity [20]: 44%; Activity [21]: Dose-dependent effect; fold change (FC) [22]: 1.7 |
